According to patent US6613718B2, “Aryl ether derivatives and processes for their preparation and herbicidal and desiccant compositions containing them” (Ishihara Sangyo Kaisha, Ltd., priority 2001, dated 2003):

Key:
Assay type in all cases: in vivo
[1] = system: barnyardgrass (Echinochloa crus-galli, ECHCG); experiment: Pre-emerge greenhouse herbicide activity screening, phytotoxicity rating; conditions: 14 days after application
Summary of the method: (§1)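 Pre-emerge: seeds sown 1 day before spray; acetone solutions, 15–1000 g ai/ha, track sprayer; soil watered after application, then bottom-watered. Post-emerge: plants at 2-3 leaf stage (sown 8-21 days prior), 0.25% v/v non-ionic surfactant added, bottom-watered only. Rated 0-100 at 14 DAA.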

[2] = system: common ragweed (Ambrosia artemisiifolia L., AMBEL); experiment: as above; conditions: 14 days after application
Summary of the method: as §1

[3] = system: green foxtail (Setaria viridis, SETVI); experiment: as above; conditions: 14 days after application
Summary of the method: as §1

[4] = system: ivyleaf morningglory (Ipomoea hederacea, IPOHE); experiment: as above; conditions: 14 days after application
Summary of the method: as §1

[5] = system: johnsongrass (Sorghum halepense, SORHA); experiment: as above; conditions: 14 days after application
Summary of the method: as §1

[6] = system: lambsquarters (Chenopodium album, CHEAL); experiment: as above; conditions: 14 days after application
Summary of the method: as §1

[7] = system: large crabgrass (Digitaria sanguinalis, DIGSA); experiment: as above; conditions: 14 days after application
Summary of the method: as §1

[8] = system: redroot pigweed (Amaranthus retroflexus, AMARE); experiment: as above; conditions: 14 days after application
Summary of the method: as §1

[9] = system: sicklepod (Cassia obtusifolia, CASOB); experiment: as above; conditions: 14 days after application
Summary of the method: as §1

[10] = system: velvetleaf (Abutilon theophrasti, ABUTH); experiment: as above; conditions: 14 days after application
Summary of the method: as §1

[11] = system: field corn (Zea mays L., var. Dekalb 535, CORN); experiment: Pre-emerge greenhouse screening, crop safety (phytotoxicity rating); conditions: 14 days after application
Summary of the method: as §1

[12] = system: soybean (Glycine max L., var. Pella 86, SOY); experiment: as above; conditions: 14 days after application
Summary of the method: as §1

[13] = system: upland rice (Oryza sp., var.Tebonnet, RICE); experiment: as above; conditions: 14 days after application
Summary of the method: as §1

[14] = system: barnyardgrass (Echinochloa crus-galli, ECHCG); experiment: Post-emerge greenhouse herbicide activity screening, phytotoxicity rating; conditions: 14 days after application
Summary of the method: as §1

[15] = system: common ragweed (Ambrosia artemisiifolia L., AMBEL); experiment: as above
Summary of the method: as §1

[16] = system: green foxtail (Setaria viridis, SETVI); experiment: as above
Summary of the method: as §1

[17] = system: ivyleaf morningglory (Ipomoea hederacea, IPOHE); experiment: as above; conditions: 14 days after application
Summary of the method: as §1

[18] = system: johnsongrass (Sorghum halepense, SORHA); experiment: as above; conditions: 14 days after application
Summary of the method: as §1

[19] = system: lambsquarters (Chenopodium album, CHEAL); experiment: as above
Summary of the method: as §1

[20] = system: large crabgrass (Digitaria sanguinalis, DIGSA); experiment: as above; conditions: 14 days after application
Summary of the method: as §1

[21] = system: redroot pigweed (Amaranthus retroflexus, AMARE); experiment: as above
Summary of the method: as §1

[22] = system: sicklepod (Cassia obtusifolia, CASOB); experiment: as above
Summary of the method: as §1

[23] = system: velvetleaf (Abutilon theophrasti, ABUTH); experiment: as above; conditions: 14 days after application
Summary of the method: as §1

[24] = system: field corn (Zea mays L., var. Dekalb 535, CORN); experiment: Post-emerge greenhouse screening, crop safety / corn selectivity (phytotoxicity rating); conditions: for CORN crop damage, phytotoxicity rating (0-100 scale): 14 days after application
Summary of the method: as §1

[25] = system: soybean (Glycine max L., var. Pella 86, SOY); experiment: Post-emerge greenhouse screening, crop safety (phytotoxicity rating); conditions: 14 days after application
Summary of the method: as §1

[26] = system: upland rice (Oryza sp., var.Tebonnet, RICE); experiment: as above; conditions: 14 days after application
Summary of the method: as §1

[27] = 125 g ai/ha, 14 days after application
[28] = 250 g ai/ha, 14 days after application

Fc1cc(Cl)c(Oc2ncccn2)cc1-c1nn2c(c1Br)CCCC2 [Compound 6-2]
100: ECHCG phytotoxicity rating (0-100 scale) ([1]; 250 g ai/ha) | AMBEL phytotoxicity rating (0-100 scale) ([2]; 250 g ai/ha) | SETVI phytotoxicity rating (0-100 scale) ([3]; 125 g ai/ha) | SETVI phytotoxicity rating (0-100 scale) ([3]; 250 g ai/ha) | IPOHE phytotoxicity rating (0-100 scale) ([4]; 250 g ai/ha) | SORHA phytotoxicity rating (0-100 scale) ([5]; 125 g ai/ha) | SORHA phytotoxicity rating (0-100 scale) ([5]; 250 g ai/ha) | CHEAL phytotoxicity rating (0-100 scale) ([6]; 125 g ai/ha) | CHEAL phytotoxicity rating (0-100 scale) ([6]; 250 g ai/ha) | DIGSA phytotoxicity rating (0-100 scale) ([7]; 125 g ai/ha) | DIGSA phytotoxicity rating (0-100 scale) ([7]; 250 g ai/ha) | AMARE phytotoxicity rating (0-100 scale) ([8]; 125 g ai/ha) | AMARE phytotoxicity rating (0-100 scale) ([8]; 250 g ai/ha) | CASOB phytotoxicity rating (0-100 scale) ([9]; 125 g ai/ha) | CASOB phytotoxicity rating (0-100 scale) ([9]; 250 g ai/ha) | ABUTH phytotoxicity rating (0-100 scale) ([10]; 125 g ai/ha) | ABUTH phytotoxicity rating (0-100 scale) ([10]; 250 g ai/ha) | SETVI phytotoxicity rating (0-100 scale) ([16]; 31.3 g ai/ha) | SETVI phytotoxicity rating (0-100 scale) ([16]; 62.5 g ai/ha) | SETVI phytotoxicity rating (0-100 scale) [16, 27] | SETVI phytotoxicity rating (0-100 scale) [16, 28] | IPOHE phytotoxicity rating (0-100 scale) ([17]; 125 g ai/ha) | IPOHE phytotoxicity rating (0-100 scale) ([17]; 250 g ai/ha) | CHEAL phytotoxicity rating (0-100 scale) ([19]; 31.3 g ai/ha) | CHEAL phytotoxicity rating (0-100 scale) ([19]; 62.5 g ai/ha) | CHEAL phytotoxicity rating (0-100 scale) [19, 27] | CHEAL phytotoxicity rating (0-100 scale) [19, 28] | AMARE phytotoxicity rating (0-100 scale) ([21]; 31.3 g ai/ha) | AMARE phytotoxicity rating (0-100 scale) ([21]; 62.5 g ai/ha) | AMARE phytotoxicity rating (0-100 scale) [21, 27] | AMARE phytotoxicity rating (0-100 scale) [21, 28] | CASOB phytotoxicity rating (0-100 scale) ([22]; 31.3 g ai/ha) | CASOB phytotoxicity rating (0-100 scale) ([22]; 62.5 g ai/ha) | CASOB phytotoxicity rating (0-100 scale) [22, 27] | CASOB phytotoxicity rating (0-100 scale) [22, 28] | ABUTH phytotoxicity rating (0-100 scale) ([23]; 125 g ai/ha) | ABUTH phytotoxicity rating (0-100 scale) ([23]; 250 g ai/ha)
75: RICE crop damage, phytotoxicity rating (0-100 scale) ([13]; 250 g ai/ha) | DIGSA phytotoxicity rating (0-100 scale) ([20]; 125 g ai/ha)
10: CORN selectivity, phytotoxicity rating (0-100 scale) ([24]; 62.5 g ai/ha)
95: ECHCG phytotoxicity rating (0-100 scale) ([14]; 250 g ai/ha) | SORHA phytotoxicity rating (0-100 scale) ([18]; 250 g ai/ha) | RICE crop damage, phytotoxicity rating (0-100 scale) ([26]; 125 g ai/ha)
99: ECHCG phytotoxicity rating (0-100 scale) ([1]; 125 g ai/ha) | AMBEL phytotoxicity rating (0-100 scale) ([2]; 125 g ai/ha) | SOY crop damage, phytotoxicity rating (0-100 scale) ([25]; 125 g ai/ha) | SOY crop damage, phytotoxicity rating (0-100 scale) ([25]; 250 g ai/ha)
98: RICE crop damage, phytotoxicity rating (0-100 scale) ([26]; 250 g ai/ha)
80: AMBEL phytotoxicity rating (0-100 scale) ([15]; 31.3 g ai/ha) | SORHA phytotoxicity rating (0-100 scale) ([18]; 125 g ai/ha) | DIGSA phytotoxicity rating (0-100 scale) ([20]; 250 g ai/ha)
3: CORN selectivity, phytotoxicity rating (0-100 scale) ([24]; 31.3 g ai/ha)
15: CORN crop damage, phytotoxicity rating (0-100 scale) ([24]; 125 g ai/ha) | CORN crop damage, phytotoxicity rating (0-100 scale) ([24]; 250 g ai/ha)
40: CORN crop damage, phytotoxicity rating (0-100 scale) ([11]; 250 g ai/ha) | SOY crop damage, phytotoxicity rating (0-100 scale) ([12]; 250 g ai/ha)
90: ECHCG phytotoxicity rating (0-100 scale) ([14]; 125 g ai/ha) | AMBEL phytotoxicity rating (0-100 scale) [15, 28]
20: CORN crop damage, phytotoxicity rating (0-100 scale) ([11]; 125 g ai/ha)
60: RICE crop damage, phytotoxicity rating (0-100 scale) ([13]; 125 g ai/ha)
25: SOY crop damage, phytotoxicity rating (0-100 scale) ([12]; 125 g ai/ha)
85: IPOHE phytotoxicity rating (0-100 scale) ([4]; 125 g ai/ha) | AMBEL phytotoxicity rating (0-100 scale) ([15]; 62.5 g ai/ha) | AMBEL phytotoxicity rating (0-100 scale) [15, 27]
